In patent US8664399B2, “Substituted heterocyclic compounds as ion channel modulators” (Gilead Sciences, Inc., priority 2008, dated 2014):

What was measured:
Format in all cases: cell-based
[1] = biological target: T1, human cardiac sodium channel, hNav1.5 (Homo sapiens, UniProt Q14524); experiment: Late INa screening assay (automated whole cell patch clamp, PatchXpress; late current generated with 10 μM Tefluthrin); details: HEK293 cells expressing hNav1.5; for inhibition at 10 µM: 10 μM test compound, read-out: Late Ina % blk (10 μM test cmpd)
T1 construct: host or cells: HEK293
T1 sequence (Q14524 whole entry): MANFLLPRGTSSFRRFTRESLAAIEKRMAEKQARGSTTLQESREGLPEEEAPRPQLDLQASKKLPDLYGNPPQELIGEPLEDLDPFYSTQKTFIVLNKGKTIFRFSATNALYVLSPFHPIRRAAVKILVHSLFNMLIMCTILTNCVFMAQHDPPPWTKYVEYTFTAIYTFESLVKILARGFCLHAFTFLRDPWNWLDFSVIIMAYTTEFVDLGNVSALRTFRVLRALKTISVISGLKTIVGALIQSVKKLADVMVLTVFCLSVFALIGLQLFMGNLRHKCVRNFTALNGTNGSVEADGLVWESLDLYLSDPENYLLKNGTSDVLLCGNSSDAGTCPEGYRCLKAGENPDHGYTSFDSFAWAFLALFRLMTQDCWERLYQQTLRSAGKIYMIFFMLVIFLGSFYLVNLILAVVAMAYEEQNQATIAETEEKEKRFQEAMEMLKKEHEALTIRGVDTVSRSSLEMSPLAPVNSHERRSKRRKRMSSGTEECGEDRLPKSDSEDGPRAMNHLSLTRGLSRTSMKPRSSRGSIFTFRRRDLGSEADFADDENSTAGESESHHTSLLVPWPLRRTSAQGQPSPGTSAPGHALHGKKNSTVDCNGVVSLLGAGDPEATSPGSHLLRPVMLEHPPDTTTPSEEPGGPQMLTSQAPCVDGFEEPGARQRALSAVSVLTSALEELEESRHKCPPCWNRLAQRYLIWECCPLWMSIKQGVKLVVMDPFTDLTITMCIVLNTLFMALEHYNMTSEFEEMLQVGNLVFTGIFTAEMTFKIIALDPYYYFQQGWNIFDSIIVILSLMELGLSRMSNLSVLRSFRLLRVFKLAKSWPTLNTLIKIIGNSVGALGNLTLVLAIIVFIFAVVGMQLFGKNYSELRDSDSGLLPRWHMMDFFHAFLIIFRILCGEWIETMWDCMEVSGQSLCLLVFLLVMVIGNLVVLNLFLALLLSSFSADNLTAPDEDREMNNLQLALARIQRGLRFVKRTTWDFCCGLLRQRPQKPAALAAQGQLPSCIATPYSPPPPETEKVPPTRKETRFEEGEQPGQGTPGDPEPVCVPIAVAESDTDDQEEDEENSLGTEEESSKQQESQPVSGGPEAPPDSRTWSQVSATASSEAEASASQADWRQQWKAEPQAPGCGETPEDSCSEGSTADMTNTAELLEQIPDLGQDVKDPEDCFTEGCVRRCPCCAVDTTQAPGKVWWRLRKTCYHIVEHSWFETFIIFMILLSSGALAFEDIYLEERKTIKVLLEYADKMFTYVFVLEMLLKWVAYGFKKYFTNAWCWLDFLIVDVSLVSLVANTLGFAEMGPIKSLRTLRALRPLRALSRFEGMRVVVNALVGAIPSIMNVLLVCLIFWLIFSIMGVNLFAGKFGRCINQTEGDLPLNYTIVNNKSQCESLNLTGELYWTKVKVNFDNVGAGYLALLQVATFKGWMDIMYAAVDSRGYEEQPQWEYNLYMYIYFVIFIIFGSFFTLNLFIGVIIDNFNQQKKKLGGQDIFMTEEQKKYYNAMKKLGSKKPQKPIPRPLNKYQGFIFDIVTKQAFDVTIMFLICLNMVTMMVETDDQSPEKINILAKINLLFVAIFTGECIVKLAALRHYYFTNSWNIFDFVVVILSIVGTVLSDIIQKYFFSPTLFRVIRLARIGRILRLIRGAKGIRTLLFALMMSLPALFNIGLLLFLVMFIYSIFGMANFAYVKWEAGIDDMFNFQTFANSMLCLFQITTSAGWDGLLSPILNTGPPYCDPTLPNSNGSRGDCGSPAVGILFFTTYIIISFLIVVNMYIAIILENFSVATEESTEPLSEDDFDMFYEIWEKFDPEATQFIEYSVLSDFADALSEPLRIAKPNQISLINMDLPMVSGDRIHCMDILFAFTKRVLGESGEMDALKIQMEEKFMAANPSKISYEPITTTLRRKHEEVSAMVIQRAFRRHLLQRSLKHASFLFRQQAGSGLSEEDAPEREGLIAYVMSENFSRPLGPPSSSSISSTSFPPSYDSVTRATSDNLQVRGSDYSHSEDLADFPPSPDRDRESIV
Procedure: The late sodium current (Late INa) and peak sodium current (Peak INa) assays were performed on an automated electrophysiology platform, PatchXpress 7000A (MDS Analytical Technologies, Sunnyvale, Calif.), which uses the whole cell patch clamp technique to measure currents through the cell membrane of up to 16 cells at a time. The assay uses an HEK293 (human embryonic kidney) cell line heterologously expressing the wild-type human cardiac sodium channel, hNav1.5, purchased from Millipore (Billerica, Mass.). No beta subunits were coexpressed with the Na channel alpha subunit. Cells were maintained with standard tissue culture procedures and stable channel expression was maintained with 400 μg/ml Geneticin in the culture medium. Cells isolated for use on PatchXpress were incubated for 5 minutes in Versene 1X and then for 2 minutes in 0.0125% Trypsin-EDTA (both at 37° C.) to ensure that 80-90% of the cells are single and not part of a cell cluster. Experiments were carried out at 24-27° C.
For both the Late INa and Peak INa assays, series resistance compensation was set to 50% and whole-cell compensation is performed automatically. Currents were low-pass filtered at 10 kHz and digitized at 31.25 kHz. Currents through open sodium channels were automatically recorded and stored in the DataXpress2 database (MDS Analytical Technologies, Sunnyvale, Calif.). Analysis is performed using DataXpress2 analysis software and data are compiled in Excel.
Compound stocks were routinely made in glass vials to 10 mM in dimethyl sulfoxide (DMSO). In some cases, when compounds were not soluble in DMSO, they were made in 100% ethanol. Stocks were sonicated as necessary. The extracellular solution for screening Late INa was composed of: 140 mM NaCl, 4 mM KCl, 1.8 mM CaCl2, 0.75 mM MgCl2, and 5 mM HEPES with pH adjusted to 7.4 using NaOH. The extracellular solution for screening Peak INa was composed of: 20 mM NaCl, 120 mM N-methyl-D glucamine, 4 mM KCl, 1.8 mM CaCl2, 0.75 mM MgCl2, and 5 mM HEPES with pH adjusted to 7.4 using HCl. The intracellular solution used to perfuse the inside of the cells for both the Late INa and Peak INa assays contained: 120 mM CsF, 20 mM CsCl, 5 mM EGTA, 5 mM HEPES and pH adjusted to 7.4 with CsOH. […] The 0Na extracellular solution used at the end of each experiment for the Late INa and Peak INa assays to measure baseline current contained: 140 mM N-methyl-D-glucamine; 4 mM KCl; 1.8 mM CaCl2; 0.75 mM MgCl2; 5 mM HEPES and pH was adjusted to 7.4 with HCl.
For the Late INa assay, sodium channels were activated every 10 seconds (0.1 Hz) by depolarizing the cell membrane to −20 mV for 250 milliseconds (ms) from a holding potential of −120 mV. In response to a −20 mV voltage step, typical Nav1.5 sodium currents activate rapidly to a peak negative current and then inactivate nearly completely within 3-4 ms.
All compounds were tested to determine their activity in blocking the late sodium current. Late INa current was generated by adding 10 μM Tefluthrin (pyrethroid) to the extracellular solution while recording Na currents.

[2] = biological target: T2, hERG potassium channel (Homo sapiens, UniProt Q12809); experiment: hERG screening assay (PatchXpress automated patch clamp, CHO cell line); details: CHO cells; for hERG Patch Clamp hERG % blk (1 μm test cmpd): 1 μm test compound; for hERG Patch Clamp hERG % blk (10 μm test cmpd): 10 μm test compound
T2 construct: expressed in transfected cells; host or cells: CHO (Chinese Hamster Ovary)
T2 sequence (Q12809 whole entry): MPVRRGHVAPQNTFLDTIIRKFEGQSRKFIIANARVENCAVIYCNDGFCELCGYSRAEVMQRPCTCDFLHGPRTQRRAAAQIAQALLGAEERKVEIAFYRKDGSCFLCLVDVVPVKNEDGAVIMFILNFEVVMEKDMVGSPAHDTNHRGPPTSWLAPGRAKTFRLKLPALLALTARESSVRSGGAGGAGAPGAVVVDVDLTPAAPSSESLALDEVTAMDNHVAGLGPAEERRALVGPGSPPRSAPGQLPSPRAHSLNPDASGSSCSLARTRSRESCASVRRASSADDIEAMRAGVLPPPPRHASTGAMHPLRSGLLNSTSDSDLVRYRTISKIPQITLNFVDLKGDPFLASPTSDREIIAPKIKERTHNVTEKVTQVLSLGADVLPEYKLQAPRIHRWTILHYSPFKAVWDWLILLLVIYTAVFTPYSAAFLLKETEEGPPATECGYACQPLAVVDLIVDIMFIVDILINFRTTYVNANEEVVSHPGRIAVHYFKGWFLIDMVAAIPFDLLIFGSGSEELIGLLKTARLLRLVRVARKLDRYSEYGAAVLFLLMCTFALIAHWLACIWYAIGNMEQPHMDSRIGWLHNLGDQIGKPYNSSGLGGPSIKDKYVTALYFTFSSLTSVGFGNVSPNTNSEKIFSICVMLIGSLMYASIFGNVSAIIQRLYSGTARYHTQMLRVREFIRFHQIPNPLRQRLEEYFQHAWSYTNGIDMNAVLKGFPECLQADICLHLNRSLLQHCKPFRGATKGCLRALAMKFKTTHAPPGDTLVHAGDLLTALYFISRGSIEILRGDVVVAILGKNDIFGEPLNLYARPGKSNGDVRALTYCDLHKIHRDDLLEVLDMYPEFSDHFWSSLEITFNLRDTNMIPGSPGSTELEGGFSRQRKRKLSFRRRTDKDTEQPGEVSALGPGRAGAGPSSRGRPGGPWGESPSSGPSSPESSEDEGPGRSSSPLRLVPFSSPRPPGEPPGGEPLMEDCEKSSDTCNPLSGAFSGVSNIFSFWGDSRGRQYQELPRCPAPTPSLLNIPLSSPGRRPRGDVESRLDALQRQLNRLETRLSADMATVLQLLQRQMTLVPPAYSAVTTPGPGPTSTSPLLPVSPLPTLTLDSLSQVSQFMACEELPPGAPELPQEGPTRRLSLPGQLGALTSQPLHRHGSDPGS
Procedure: Compounds were screened to test their activity in blocking the hERG potassium channel. The hERG channel is heterologously expressed in a CHO (Chinese Hamster Ovary) cell line. Cells were maintained with standard tissue culture procedures and stable channel expression is maintained with 500 μg/ml G418 in the culture medium. Cells were harvested for testing on the PatchXpress automated patch clamp with Accumax (Innovative Cell Technologies, San Diego, Calif.) to isolate single cells.
The following solutions were used for electrophysiological recordings. The external solution contains: 2 mM CaCl2; 2 mM MgCl2; 4 mM KCl; 150 mM NaCl; 10 mM Glucose; 10 mM HEPES (pH 7.4 with 1M NaOH, osmolarity). The internal solution contained: 140 mM KCl, 10 mM MgCl2, 6 mM EGTA, 5 mM HEPES, 5 mM ATP (pH adjusted to 7.25 with KOH).
hERG channels are activated when the voltage is stepped to +20 mV from the −80 mV holding potential. During a 5 second step at +20 mV, the channels activate and then largely inactivate, so the currents are relatively small. Upon returning to −50 mV from +20 mV, hERG currents transiently become much larger as inactivation is rapidly removed and then the channel closes. The first step to −50 mV for 300 ms is used as a baseline for measuring the peak amplitude during the step to −50 mV after channel activation. The peak current at −50 mV was measured both under control conditions and after addition of compound.
All compounds were prepared as 10 mM DMSO stocks in glass vials. Stock solutions were mixed by vigorous vortexing and sonication for about 2 minutes at room temperature. For testing, compounds were diluted in glass vials using an intermediate dilution step in pure DMSO and then further diluted to working concentrations in external solution. Dilutions were prepared no longer than 20 minutes before use.
After achieving the whole-cell configuration, cells were monitored for 90 seconds to assess stability and washed with external solution for 66 seconds. The voltage protocol described above was then applied to the cells every 12 seconds and throughout the whole procedure. Only cells with stable recording parameters and meeting specified health criteria were allowed to enter the compound addition procedure.
External solution containing 0.1% DMSO (vehicle) was applied to the cells first to establish the control peak current amplitude. After allowing the current to stabilize for 3 to 5 minutes, 1 μM and then 10 μM test compounds was applied. Each compound concentration was added 4 times and cells were kept in test solution until the effect of the compound reaches steady state or for a maximum of 12 minutes. After addition of test compound, a positive control (1 μM Cisapride) was added and must block >95% of the current for the experiment to be considered valid. Washout in the external solution compartment was performed until the recovery of the current reaches steady state. Data were analyzed using DataXpress, Clampfit (Molecular Devices, Inc., Sunnyvale) and Origin 7 (Originlab Corp.)

[3] = biological target: T3, human Nav1.7 (hNav1.7+β1 subunits) channels expressed in HEK293 cells (Homo sapiens, UniProt Q15858); experiment: Nav1.7 screening assay (fluorescent dye-based membrane potential assay, veratridine); details: veratridine 50 μmol/L, read-out: IC50 for reduction of Nav1.7 Na+ current
T3 construct: expressed in transfected cells; host or cells: HEK293

Compound | inhibition at 10 µM [1] | hERG Patch Clamp hERG % blk (1 μm test cmpd) [2] | hERG Patch Clamp hERG % blk (10 μm test cmpd) [2] | IC50 [3] | Late Ina % blk (1 μM test cmpd) ([1]; 1 μM test compound)
Cc1nc2ccc(Cl)cc2c(-c2ccccc2)c1-c1nnc(Cc2ccc(Cl)cc2)o1 [PT-005, 6-chloro-3-[5-(4-chlorobenzyl)-1,3,4-oxadiazol-2-yl]-2-methyl-4-phenylquinoline] | 43.6% | 10.5% | 32.5% | 0.2 µM | 
CCOC(=O)c1c(CN2C(=O)CCC2=O)nc2ccc(Cl)cc2c1-c1ccccc1 [PT-009, ethyl 6-chloro-2-[(2,5-dioxopyrrolidin-1-yl)methyl]-4-phenylquinoline-3-carboxylate] | 53.3% | 24.0% | 65.5% |  | 
CCOC(=O)c1c(Cn2cnnn2)nc2ccc(Cl)cc2c1-c1ccccc1 [PT-010, ethyl 6-chloro-4-phenyl-2-(1H-tetrazol-1-ylmethyl)quinoline-3-carboxylate] | 41.6% | 18.5% | 66.0% |  | 
Cc1nc2ccc(Cl)cc2c(-c2ccccc2)c1C(=O)OC(c1ccccc1)C1CC1 (stereo not drawn) [PT-012, cyclopropyl(phenyl)methyl 6-chloro-2-methyl-4-phenylquinoline-3-carboxylate] | 20.5% | 10.5% | 13.5% |  | 
Cc1nc2ccc(Cl)cc2c(-c2ccccc2)c1C(=O)OCC1CC1 [PT-016, cyclopropylmethyl 6-chloro-2-methyl-4-phenylquinoline-3-carboxylate] | 59% | 30.5% | 73.0% | 37.5 µM | 
Cc1nc2ccc(Cl)cc2c(-c2ccccc2)c1C(=O)N1CCC(c2ccc(C(N)=O)cc2)CC1 [PT-017, 4-{1-[(6-chloro-2-methyl-4-phenylquinolin-3-yl)carbonyl]piperidin-4-yl}benzamide] | 29.4% | 28.5% | 51.0% |  | 
Cc1nc2ccccc2c(C)c1C(=O)OCc1ccc(Cl)cc1 [PT-019, 4-chlorobenzyl 2,4-dimethylquinoline-3-carboxylate] | 70.1% | 10.0% | 62.5% |  | 22.5%
